Reference: paper PMC9370560, “5-Demethoxy-10′-ethoxyexotimarin F, a New Coumarin with MAO-B Inhibitory Potential from Murraya exotica L” (Molecules, 2022)
Read-outs that look alike come from different tables or passages of the source.

How the values were obtained:
[1] = system: Salmonella enterica (ATCC14028); test: Antimicrobial assay (broth dilution and Oxford cup method); type: cell-based, Salmonella enterica subsp. enterica; settings: 100 μM
Excerpt: (§1) The broth dilution method and Oxford cup method were used to detect antimicrobial activity against reference strains, including Salmonella enterica subsp. enterica (ATCC14028), Staphylococcus aureus subsp. aureus (ATCC29213), Escherichia coli (ATCC25922), Pseudomonas aeruginosa (ATCC27853), and Candida albicans (ATCC10231). Ceftazidime and penicillin G sodium and amphotericin B served as an antibacterial and antifungal positive control, respectively.

[2] = system: T1, butyrylcholinesterase (BuChE); test: Butyrylcholinesterase inhibitory activity (Ellman's method); type: biochemical, human; settings: 50 μM
T1 construct: acetylcholinesterase and butyrylcholinesterase derived from human erythrocytes; purchased Sigma Chemical (St. Louis, MO, USA); host or cells: human erythrocytes (so in the source)
Method: (§2) S-Acetylthiocholine iodide, S-butyrylthiocholineiodide, 5,5′-dithio-bis-(2-nitrobenzoic) acid (DTNB, Ellman’s reagent), acetylcholinesterase and butyrylcholinesterase derived from human erythrocytes were purchased from Sigma Chemical (St. Louis, MO, USA). The compounds were dissolved in DMSO. The reaction mixture (totally 200 μL) containing phosphate buffer (pH 8.0), test compound (50 μM), and acetyl cholinesterase (0.02 U/mL) or butyrylcholinesterase (0.016 U/mL), was incubated for 20 min (37 °C). […] All of the reactions were performed in triplicate. The percentage inhibition was calculated as follows: % inhibition = (E − S)/E × 100 (E is the activity of the enzyme without test compound, and S is the activity of the enzyme with test compound).

[3] = system: Staphylococcus aureus (ATCC29213); test: Antimicrobial assay (broth dilution and Oxford cup method); type: cell-based, Staphylococcus aureus subsp. aureus; settings: 100 μM
Excerpt: as §1

[4] = system: Pseudomonas aeruginosa (ATCC27853); test: as above; type: cell-based; settings: 100 μM
Excerpt: as §1

[5] = system: Escherichia coli (ATCC25922); test: as above; type: cell-based; settings: 100 μM
Excerpt: as §1

[6] = system: Candida albicans (ATCC10231); test: as above; type: cell-based; settings: 100 μM
Excerpt: as §1

[7] = system: acetylcholinesterase (AChE); settings: 50 μM
Method: as §2

α-glucosidase = test: α-Glucosidase inhibition assay (4-NPGP); type: biochemical
Method: An enzyme inhibitor screening model was chosen using 4-nitro-phenol-α-D-glucopyranoside (4-NPGP) and slightly modified. Briefly, the test compound (50 μM), α-glucosidase solution (0.025 U/mL), phosphate buffer (pH 6.9), and (4-NPGP) (1 μM) were incubated in 96-well plates at 37 °C for 50 min. […] Quercetin was selected as the positive control. All of the reactions were repeated three times.

MAO-B [8] = target: T2, MAO-B (Homo sapiens, UniProt P27338); test: biochemical
T2 sequence (P27338 1-520): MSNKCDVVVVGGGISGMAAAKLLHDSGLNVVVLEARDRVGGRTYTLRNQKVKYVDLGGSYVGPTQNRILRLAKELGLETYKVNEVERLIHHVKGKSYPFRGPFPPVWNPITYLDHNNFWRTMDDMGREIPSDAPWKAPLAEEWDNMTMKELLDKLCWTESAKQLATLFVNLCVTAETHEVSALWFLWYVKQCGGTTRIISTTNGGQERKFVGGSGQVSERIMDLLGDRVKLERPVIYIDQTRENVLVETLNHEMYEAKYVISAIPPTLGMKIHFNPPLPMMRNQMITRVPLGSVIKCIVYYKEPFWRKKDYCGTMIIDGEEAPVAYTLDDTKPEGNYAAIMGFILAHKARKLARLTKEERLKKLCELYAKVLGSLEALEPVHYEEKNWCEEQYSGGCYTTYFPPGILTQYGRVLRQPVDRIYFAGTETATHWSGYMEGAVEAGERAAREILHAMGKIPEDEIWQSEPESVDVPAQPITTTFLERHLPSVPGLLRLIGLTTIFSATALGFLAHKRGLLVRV

[9] = system: LPS-induced NO production in RAW264.7 cells; test: Anti-inflammatory assay: inhibition of LPS-induced NO production; type: cell-based
MAO-A = target: T3, MAO-A (Homo sapiens, UniProt P21397); test: biochemical; settings: mean ± S.E.M. from three experiments
T3 sequence (P21397 1-527): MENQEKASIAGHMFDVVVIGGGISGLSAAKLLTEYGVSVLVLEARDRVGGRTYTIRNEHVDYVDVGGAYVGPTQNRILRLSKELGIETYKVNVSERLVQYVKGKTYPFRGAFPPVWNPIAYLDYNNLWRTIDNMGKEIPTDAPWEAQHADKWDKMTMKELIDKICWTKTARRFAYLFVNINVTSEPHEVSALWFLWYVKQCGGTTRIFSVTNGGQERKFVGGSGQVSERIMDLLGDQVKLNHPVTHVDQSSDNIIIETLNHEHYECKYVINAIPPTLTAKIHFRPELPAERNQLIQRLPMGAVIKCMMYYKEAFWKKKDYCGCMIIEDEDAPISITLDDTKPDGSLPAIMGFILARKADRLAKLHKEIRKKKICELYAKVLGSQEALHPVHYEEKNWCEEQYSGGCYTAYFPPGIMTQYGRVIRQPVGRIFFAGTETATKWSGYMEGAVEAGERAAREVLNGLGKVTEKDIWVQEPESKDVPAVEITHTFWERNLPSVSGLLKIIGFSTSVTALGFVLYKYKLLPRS

MAO-B [10] = target: T2, MAO-B; settings: previous studies of the authors; read-out: IC50 against MAO-B; cited from earlier work

C=C(C)[C@H](O)[C@@H](OCC)c1c(OC)ccc(/C=C/C(=O)O[C@H](Cc2c(OC)ccc3ccc(=O)oc23)C(C)(C)O)c1O [Compound 1, (E)-(R)-3-hydroxy-1-(7-methoxy-2-oxo-2H-chromen-8-yl)-3-methylbutan-2-yl·3-(3-((1S, 2S)-1-ethoxy-2-hydroxy-3-methylbut-3-en-1-yl)-2-hydroxy-4-methoxyphenyl)acrylate]
inhibitory effect against Salmonella enterica (ATCC14028) [1]: did not lead to a significant inhibitory effect
BuChE inhibitory activity [2]: did not show any inhibitory activity
inhibitory effect against Staphylococcus aureus (ATCC29213) [3]: did not lead to a significant inhibitory effect
inhibitory effect against Pseudomonas aeruginosa (ATCC27853) [4]: did not lead to a significant inhibitory effect
inhibitory effect against Escherichia coli (ATCC25922) [5]: did not lead to a significant inhibitory effect
inhibitory effect against Candida albicans (ATCC10231) [6]: did not lead to a significant inhibitory effect
AChE inhibitory activity [7]: did not show any inhibitory activity
α-glucosidase percentage of inhibition (α-glucosidase; 50 μM): less than 50%
SI: MAO-B selectivity index = IC50 (MAO-A)/IC50 (MAO-B) (MAO-B [8]): 172
IC50 (MAO-B [8]; mean ± S.E.M. from three experiments): 153 ± 1.58 nM
inhibition against LPS-induced NO production [9]: 34.59%
IC50 (MAO-A): 26300 ± 1030 nM

O=c1c(O)c(-c2ccc(O)c(O)c2)oc2cc(O)cc(O)c12 [quercetin, reference compound]
α-glucosidase inhibition (positive control) (α-glucosidase; concentration not given): 53.17%

[H]/N=C(/NC)NCCC[C@H](N)C(=O)O [L-NMMA, NG-monomethyl-L-arginine, reference compound]
inhibition against LPS-induced NO production [9]: 56.13%

COc1c(OC/C=C(\C)C[C@@H]2C=C(CCC(N)=O)C(=O)O2)ccc2ccc(=O)oc12 [anisucoumaramide]
IC50 (MAO-B [10]): 143.7 ± 0.9 nM
